Assays:
[1] = in vitro; details: human, liver microsomes
[2] = in vitro; details: rat, liver microsomes
[3] = human, caco-2
[4] = in vivo; details: rat, po, 5 mg/kg
[5] = in vivo; details: rat, po, 5 mg/kg; remark: listed apart in the source
[6] = in vivo; details: rat, brain
[7] = in vivo; details: rat, iv, 1 mg/kg
[8] = in vivo; details: rat, whole blood, iv, 1 mg/kg
[9] = in vivo; details: rat

Row | SMILES | microsomal CLint at 0.5 h, 0.5 µM [1] | microsomal CLint at 0.5 h, 0.5 µM [2] | permeability [3] | Fa [4] | bioavailability [5] | Kp [6] | Vd [7] | clearance [8] | half-life [9]
1 | Cc1ccc(-c2nnc(SCCCN3CC[C@]4(C[C@@H]4c4ccc(C(F)(F)F)cc4)C3)n2C)c(C)n1 | 299 µL/min/mg | 98 µL/min/mg |  |  |  |  |  |  | 
2 | Cc1ncoc1-c1nnc(SCCCN2CC[C@@]3(C[C@H]3c3ccc(F)cc3F)C2)n1C | 53 µL/min/mg | 161 µL/min/mg |  |  |  |  |  |  | 
3 | Cc1nc(C(N)=O)ccc1-c1nnc(SCCCN2CC[C@]3(C[C@@H]3c3ccc(C(F)(F)F)cc3)C2)n1C | 299 µL/min/mg | 38 µL/min/mg |  | 54% | 39% | 1.5 | 5.5 L/kg | 21.1 mL/min/kg | 4.3 h
4 | Cn1c(SCCCN2CC[C@]3(C[C@@H]3c3ccc(C(F)(F)F)cc3)C2)nnc1-c1ccc(-c2ncco2)cc1 | 352 µL/min/mg | 276 µL/min/mg |  |  |  |  |  |  | 
5 | Cn1c(SCCCN2CC[C@]3(C[C@@H]3c3ccc(C(F)(F)F)cc3)C2)nnc1C1CCOCC1 | 34 µL/min/mg | 59 µL/min/mg | Permeable | 57% | 11% | 0.3 | 3.7 L/kg | 87.3 mL/min/kg | 0.6 h
6 | Cn1c(SCCCN2CC[C@]3(C[C@@H]3c3ccc(C(F)(F)F)cc3)C2)nnc1C1CCCCC1 | 339 µL/min/mg | 201 µL/min/mg |  |  |  |  |  |  | 
7 | Cc1ncoc1-c1nnc(SCCCN2CC[C@@]3(C[C@H]3c3ccc(F)cc3)C2)n1C | 37 µL/min/mg | 73 µL/min/mg |  |  |  |  |  |  | 
8 | Cn1c(SCCCN2CC[C@]3(C[C@@H]3c3ccc(C(F)(F)F)cc3)C2)nnc1-c1ccc(CC(N)=O)cc1 | 58 µL/min/mg | 22 µL/min/mg |  |  |  |  |  |  | 
9 | Cn1c(SCCCN2CC[C@]3(C[C@@H]3c3ccc(C(F)(F)F)cc3)C2)nnc1C1CCNC(=O)C1 (single isomer, unassigned) | 25 µL/min/mg | < 11 µL/min/mg |  |  |  |  |  |  | 
10 | Cn1c(SCCCN2CC[C@]3(C[C@@H]3c3ccc(C(F)(F)F)cc3)C2)nnc1C1CC2CCC(C1)O2 (single isomer, unassigned; enantiomer 1) | 50 µL/min/mg | 21.3 µL/min/mg |  |  |  |  | 2.6 L/kg | 80 mL/min/kg | 

Continued, values first:

Row | microsomal CLint at 0.5 h, 0.5 µM [1] | microsomal CLint at 0.5 h, 0.5 µM [2] | permeability [3] | Fa [4] | bioavailability [5] | Kp [6] | Vd [7] | clearance [8] | half-life [9] | SMILES
11 | 155 µL/min/mg | 41 µL/min/mg |  |  |  |  |  |  |  | Cn1c(SCCCN2CC[C@]3(C[C@@H]3c3ccc(C(F)(F)F)cc3)C2)nnc1-c1ccc(C(N)=O)cc1
12 | 22 µL/min/mg | 161 µL/min/mg |  |  |  |  |  |  |  | Cc1ncoc1-c1nnc(SCCCN2CC[C@]3(C[C@H]3c3ccc(C(F)(F)F)cc3)C2)n1C
13 | 447 µL/min/mg | 100 µL/min/mg |  |  |  |  |  |  |  | Cn1c(SCCCN2CC[C@]3(C[C@@H]3c3ccc(C(F)(F)F)cc3)C2)nnc1-c1cccc(-c2ncco2)c1
14 | 41 µL/min/mg | 16 µL/min/mg | Permeable | 17% | 10% | 0.4 | 4 L/kg | 30.2 mL/min/kg | 1.9 h | Cn1c(SCCCN2CC[C@]3(C[C@@H]3c3ccc(C(F)(F)F)cc3)C2)nnc1-c1ccc(=O)n(C)c1
15 | 86 µL/min/mg | 83 µL/min/mg |  |  |  |  |  |  |  | Cc1ncoc1-c1nnc(SCCCN2CC[C@]3(C[C@@H]3c3ccc(C(F)(F)F)cc3)C2)n1C
16 | 485 µL/min/mg | 278 µL/min/mg |  |  |  |  |  |  |  | Cn1c(SCCCN2CC[C@]3(C[C@@H]3c3ccc(C(F)(F)F)cc3F)C2)nnc1-c1cccnc1
17 | 106 µL/min/mg | 29 µL/min/mg |  | 40% | 26% |  | 3.2 L/kg | 19.4 mL/min/kg | 2.2 h | Cn1c(SCCCN2CC[C@]3(C[C@@H]3c3ccc(C(F)(F)F)cc3)C2)nnc1-c1ccc(C(N)=O)nc1
18 | 80 µL/min/mg | 103 µL/min/mg |  |  |  |  |  |  |  | Cc1ncccc1-c1nnc(SCCCN2CC[C@]3(C[C@@H]3c3ccc(C(F)(F)F)cc3)C2)n1C
19 | 187 µL/min/mg | 92 µL/min/mg |  |  |  |  |  |  |  | Cn1c(SCCCN2CC[C@]3(C[C@@H]3c3ccc(C(F)(F)F)cc3)C2)nnc1-c1cccc(C(N)=O)c1
20 | 65 µL/min/mg | 51 µL/min/mg |  |  |  |  |  |  |  | Cc1ncoc1-c1nnc(SCCCN2CC[C@]3(C[C@H]3c3ccc(F)cc3C(F)(F)F)C2)n1C (single isomer, unassigned; enantiomer 1)
21 | 320 µL/min/mg | 151 µL/min/mg |  |  |  |  |  |  |  | Cc1ncoc1-c1nnc(SCCCN2CC[C@@]3(C[C@H]3c3ccc(F)cc3C(F)(F)F)C2)n1C (single isomer, unassigned; enantiomer 2)
22 | 28 µL/min/mg | 14 µL/min/mg | Impermeable | 1% | 2% |  | 9.1 L/kg | 48 mL/min/kg | 3.4 h | Cn1c(SCCCN2CC[C@]3(C[C@@H]3c3ccc(C(F)(F)F)cc3)C2)nnc1C1=CCC(=O)N=C1 (stereo in doubt)

Reference: ChEMBL document CHEMBL3853329, “1,2,4-Triazolyl 5-Azaspiro[2.4]heptanes: Lead Identification and Early Lead Optimization of a New Series of Potent and Selective Dopamine D3 Receptor Antagonists” (J Med Chem, 2016)
